Source: publication PMC5698418 (Nature Communications, 2017)
Where a name gives a salt, the structure may show the parent alone. Read-outs that look alike come from different tables or passages of the source.

Tested on: BDNF-induced nuclear Arc expression in primary cortical neurons
Assay: Chemogenomic screen: high-content image-based assay of BDNF-induced nuclear Arc expression (96-well)
Format: cell-based, mouse
Method: To increase the throughput of our pharmacological screening for modulators of Arc, the above mentioned assay was adapted to cultures of mouse primary cortical neurons in 96-well plates.
All 319 compounds were initially tested at a final concentration of 16.7 µM with three biological replicates.
Screening of compounds in the chemogenomic library was carried out using DIV13 primary forebrain cortical neurons cultured on poly-L-lysine/laminin-coated 96-well plates (Ibidi USA, Madison, WI). Cells were seeded at a density of 30,000 cells per well and treated with the compound library and BDNF according to the experimental design presented in Fig. 3a. After experimental treatment, cells were processed for Arc and acetyl-H3K9 immunocytochemistry according to the protocol described above. Both antigens (Arc and acetyl-H3K9) were imaged using an IN Cell Analyzer 6000 imaging system and a ×40 objective. […] High-throughput quantification of nuclear Arc immunofluorescence signal was performed in a similar fashion than the low-throughput procedure described above but with the exception that acetyl-H3K9 was used as a nuclear mask to guide the automated quantification of nuclear Arc immunofluorescence signal.

[1] = chemogenomic (SMART) screen, BDNF-induced nuclear Arc expression, primary cortical neurons, BDNF control 19.5
[2] = nuclear Arc-positive cells relative to DMSO + BDNF control, negative values = decrease
[3] = BDNF-induced nuclear Arc expression, primary cortical neurons, chemogenomic screen
[4] = nuclear Arc-positive cells relative to DMSO control (BDNF), negative = decrease

CC(=C(CCO)SSCC1CCCO1)N(C=O)Cc1cnc(C)nc1N (stereo in doubt) [Fursultiamine]
Percentage of cell with nuclear Arc immunostaining above 2σ threshold: 15.4%

CN1CC(=O)NC1=O [1-Methylhydantoin]
Percentage of cell with nuclear Arc immunostaining above 2σ threshold [1]: 31.8%
Fold-change — Normalized to DMSO control (BDNF) [2]: 1.6 fold

COc1cc(/C=C/C(=O)C(=Cc2ccc(F)c(F)c2)C(=O)/C=C/c2ccc(O)c(OC)c2)ccc1O [3,4-Difluorobenzocurcumin]
Percentage of cell with nuclear Arc immunostaining above 2σ threshold [3]: 1.4%
Fold-change — Normalized to DMSO control (BDNF) [4]: -14.1 fold

O=c1cc(-c2ccccc2)oc2c(O)c(O)ccc12 [7,8-Dihydroxyflavone]
Percentage of cell with nuclear Arc immunostaining above 2σ threshold [1]: 32.7%
Fold-change — Normalized to DMSO control (BDNF) [2]: 1.7 fold

CN1CCc2cc3c(cc2[C@H]1[C@@H]1OC(=O)c2c1ccc1c2OCO1)OCO3 [(+)-Bicuculline]
Percentage of cell with nuclear Arc immunostaining above 2σ threshold: 20.9%
Fold-change — Normalized to DMSO control (BDNF) [2]: 1.1 fold

O=C(O[C@@H]1Cc2c(O)cc(O)cc2O[C@@H]1c1cc(O)c(O)c(O)c1)c1cc(O)c(O)c(O)c1 [(-)-Epigallocatechin gallate]
Percentage of cell with nuclear Arc immunostaining above 2σ threshold [1]: 38.0%
Fold-change — Normalized to DMSO control (BDNF) [2]: 1.9 fold

NC[C@H](CC(=O)O)c1ccc(Cl)cc1 [(R)-Baclofen]
Percentage of cell with nuclear Arc immunostaining above 2σ threshold [1]: 31.8%
Fold-change — Normalized to DMSO control (BDNF) [2]: 1.6 fold

CC[C@H](C)[C@H](NC(=O)[C@H](CO)NC(=O)[C@@H](NC(=O)[C@@H]1CCCN1C(=O)[C@H](C)NC(=O)[C@@H](N)CC(N)=O)C(C)C)C(=O)N1CCC[C@H]1C(=O)N[C@@H](CCC(N)=O)C(=O)O [AL-108]
Percentage of cell with nuclear Arc immunostaining above 2σ threshold [3]: 8.6%
Fold-change — Normalized to DMSO control (BDNF) [4]: -2.3 fold

COc1ccc(CNC(=O)Nc2ncc([N+](=O)[O-])s2)cc1 [AR-A014418]
Percentage of cell with nuclear Arc immunostaining above 2σ threshold [3]: 4.9%
Fold-change — Normalized to DMSO control (BDNF) [4]: -4.0 fold

CC(=O)NCCCS(=O)(=O)O [Acamprosate]
Percentage of cell with nuclear Arc immunostaining above 2σ threshold: 9.4%

CC(=O)Nc1nnc(S(N)(=O)=O)s1 [Acetazolamide]
Percentage of cell with nuclear Arc immunostaining above 2σ threshold [3]: 4.9%

COc1ccc2cccc(CCNC(C)=O)c2c1 [Agomelatine]
Percentage of cell with nuclear Arc immunostaining above 2σ threshold [1]: 17.6%

NC12CC3CC(CC(C3)C1)C2 [Amantadine]
Percentage of cell with nuclear Arc immunostaining above 2σ threshold [1]: 32.9%
Fold-change — Normalized to DMSO control (BDNF) [2]: 1.7 fold

CC[N+](CC)(CCNC(=O)C(=O)NCC[N+](CC)(CC)Cc1ccccc1Cl)Cc1ccccc1Cl [Ambenonium]
Percentage of cell with nuclear Arc immunostaining above 2σ threshold: 15.1%

Cn1c(=O)c2[nH]cnc2n(C)c1=O [Aminophylline]
Percentage of cell with nuclear Arc immunostaining above 2σ threshold [1]: 23.1%
Fold-change — Normalized to DMSO control (BDNF) [2]: 1.2 fold

CCN1CCCC1CNC(=O)c1cc(S(=O)(=O)CC)c(N)cc1OC (centres unmarked) [Amisulpride]
Percentage of cell with nuclear Arc immunostaining above 2σ threshold [1]: 24.6%
Fold-change — Normalized to DMSO control (BDNF) [2]: 1.3 fold

CN(C)CCC=C1c2ccccc2CCc2ccccc21 [Amitriptyline]
Percentage of cell with nuclear Arc immunostaining above 2σ threshold [1]: 12.3%

Clc1ccc2c(c1)C(N1CCNCC1)=Nc1ccccc1O2 [Amoxapine]
Percentage of cell with nuclear Arc immunostaining above 2σ threshold [1]: 12.9%

O=C(c1ccc2nccnc2c1)N1CCCCC1 [Ampalex]
Percentage of cell with nuclear Arc immunostaining above 2σ threshold [1]: 40.8%
Fold-change — Normalized to DMSO control (BDNF) [2]: 2.1 fold

COc1ccc(C(=O)N2CCCC2=O)cc1 [Aniracetam]
Percentage of cell with nuclear Arc immunostaining above 2σ threshold [3]: 8.2%

CN1[C@H]2C[C@H](OC(=O)[C@H](CO)c3ccccc3)C[C@@H]1[C@@H](O)C2 [Anisodamine]
Percentage of cell with nuclear Arc immunostaining above 2σ threshold: 25.5%
Fold-change — Normalized to DMSO control (BDNF) [2]: 1.3 fold

CN1CC2c3ccccc3Oc3ccc(Cl)cc3C2C1 (centres unmarked) [Asenapine]
Percentage of cell with nuclear Arc immunostaining above 2σ threshold [3]: 11.2%

O=C(O)c1cccc(-c2noc(-c3ccccc3F)n2)c1 [Ataluren]
Percentage of cell with nuclear Arc immunostaining above 2σ threshold [1]: 38.6%
Fold-change — Normalized to DMSO control (BDNF) [2]: 2.0 fold

CNCC[C@@H](Oc1ccccc1C)c1ccccc1 [Atomoxetine]
Percentage of cell with nuclear Arc immunostaining above 2σ threshold [1]: 17.6%

CC(C)n1c(=O)n(C(=O)NC2CC3CCC(C2)N3C)c2ccccc21 (centres unmarked) [BIMU-8]
Percentage of cell with nuclear Arc immunostaining above 2σ threshold: 16.3%
Fold-change — Normalized to DMSO control (BDNF) [2]: -1.2 fold

NCC(CC(=O)O)c1ccc(Cl)cc1 (centres unmarked) [Baclofen]
Percentage of cell with nuclear Arc immunostaining above 2σ threshold [1]: 28.6%
Fold-change — Normalized to DMSO control (BDNF) [2]: 1.5 fold

O=C(O)[C@H]1O[C@@H](Oc2cc3oc(-c4ccccc4)cc(=O)c3c(O)c2O)[C@H](O)[C@@H](O)[C@@H]1O [Baicalin]
Percentage of cell with nuclear Arc immunostaining above 2σ threshold [1]: 34.6%
Fold-change — Normalized to DMSO control (BDNF) [2]: 1.8 fold

O=C(CCCN1CCC(n2c(O)nc3ccccc32)CC1)c1ccc(F)cc1 [Benperidol]
Percentage of cell with nuclear Arc immunostaining above 2σ threshold [1]: 18.9%

OC(CCN1CCCCC1)(c1ccccc1)C1CCCCC1 (centres unmarked) [Benzhexol hydrochloride]
Percentage of cell with nuclear Arc immunostaining above 2σ threshold [1]: 20.4%
Fold-change — Normalized to DMSO control (BDNF) [2]: 1.0 fold

CN(C)CCCOc1nn(Cc2ccccc2)c2ccccc12 [Benzydamine]
Percentage of cell with nuclear Arc immunostaining above 2σ threshold [1]: 25.2%
Fold-change — Normalized to DMSO control (BDNF) [2]: 1.3 fold

COc1ccc2cc3[n+](cc2c1OC)CCc1cc2c(cc1-3)OCO2 [Berberine]
Percentage of cell with nuclear Arc immunostaining above 2σ threshold [3]: 2.2%

Cc1ccc(C23CNCC2C3)cc1 (centres unmarked) [Bicifadine]
Percentage of cell with nuclear Arc immunostaining above 2σ threshold [3]: 7.2%

OC(CCN1CCCCC1)(c1ccccc1)C1CC2C=CC1C2 (centres unmarked) [Biperiden]
Percentage of cell with nuclear Arc immunostaining above 2σ threshold [1]: 13.3%

CCN1CCN(c2cc(-c3ccc(F)cc3)c3c(n2)CCCCCC3)CC1 [Blonanserin]
Percentage of cell with nuclear Arc immunostaining above 2σ threshold [3]: 10.9%

CC(C)(C)OC(=O)c1ncn2c1[C@@H]1CCCN1C(=O)c1c(Br)cccc1-2 [Bretazenil]
Percentage of cell with nuclear Arc immunostaining above 2σ threshold: 39.0%
Fold-change — Normalized to DMSO control (BDNF) [2]: 2.0 fold

CCN[C@H]1CN(CCCOC)S(=O)(=O)c2sc(S(N)(=O)=O)cc21 [Brinzolamide]
Percentage of cell with nuclear Arc immunostaining above 2σ threshold [1]: 28.3%
Fold-change — Normalized to DMSO control (BDNF) [2]: 1.5 fold

CCN(CC)CCNC(=O)c1cc(Br)c(N)cc1OC [Bromopride]
Percentage of cell with nuclear Arc immunostaining above 2σ threshold [1]: 27.7%
Fold-change — Normalized to DMSO control (BDNF) [2]: 1.4 fold

O=C(CCCN1CCC(O)(c2ccc(Br)cc2)CC1)c1ccc(F)cc1 [Bromperidol]
Percentage of cell with nuclear Arc immunostaining above 2σ threshold [1]: 28.9%
Fold-change — Normalized to DMSO control (BDNF) [2]: 1.5 fold

CC(NC(C)(C)C)C(=O)c1cccc(Cl)c1 (centres unmarked) [Bupropion]
Percentage of cell with nuclear Arc immunostaining above 2σ threshold [3]: 9.0%

O=C1CC2(CCCC2)CC(=O)N1CCCCN1CCN(c2ncccn2)CC1 [Buspirone]
Percentage of cell with nuclear Arc immunostaining above 2σ threshold [3]: 10.3%

C[C@H](NC[C@H](O)CP(=O)(O)Cc1ccccc1)c1ccc(Cl)c(Cl)c1 [CGP 55845]
Percentage of cell with nuclear Arc immunostaining above 2σ threshold: 24.6%
Fold-change — Normalized to DMSO control (BDNF) [2]: 1.3 fold

O=C(c1ccc2c(c1)OCCO2)N1CCCCC1 [CX-546]
Percentage of cell with nuclear Arc immunostaining above 2σ threshold: 6.5%
Fold-change — Normalized to DMSO control (BDNF) [4]: -3.0 fold

O=C1c2cc3c(cc2OC2CCCN12)OCCO3 (centres unmarked) [CX-614]
Percentage of cell with nuclear Arc immunostaining above 2σ threshold: 13.1%
Fold-change — Normalized to DMSO control (BDNF) [2]: -1.5 fold

NC(=O)N1c2ccccc2C=Cc2ccccc21 [Carbamazepine]
Percentage of cell with nuclear Arc immunostaining above 2σ threshold [3]: 7.2%

CCN(CC)CCOCCOC(=O)C1(c2ccccc2)CCCC1 [Carbetapentane]
Percentage of cell with nuclear Arc immunostaining above 2σ threshold [1]: 17.2%

C[C@@](Cc1ccc(O)c(O)c1)(NN)C(=O)O [Carbidopa]
Percentage of cell with nuclear Arc immunostaining above 2σ threshold [1]: 36.1%
Fold-change — Normalized to DMSO control (BDNF) [2]: 1.9 fold

O=C(O)C(O)C(O)C(=O)O.c1cnc2cc3c(cc2n1)[C@@H]1CNC[C@H]3C1 [Chantix]
Percentage of cell with nuclear Arc immunostaining above 2σ threshold [3]: 10.1%
Fold-change — Normalized to DMSO control (BDNF) [4]: -1.9 fold

CN1C(=O)CCS(=O)(=O)C1c1ccc(Cl)cc1 (centres unmarked) [Chlormezanone]
Percentage of cell with nuclear Arc immunostaining above 2σ threshold: 25.9%
Fold-change — Normalized to DMSO control (BDNF) [2]: 1.3 fold

CN(C)CCC(c1ccc(Cl)cc1)c1ccccn1 (centres unmarked) [Chlorphenamine]
Percentage of cell with nuclear Arc immunostaining above 2σ threshold [1]: 31.0%
Fold-change — Normalized to DMSO control (BDNF) [2]: 1.6 fold

CN(C)CCCN1c2ccccc2Sc2ccc(Cl)cc21 [Chlorpromazine]
Percentage of cell with nuclear Arc immunostaining above 2σ threshold [3]: 0.0%

CN(C)CC/C=C1/c2ccccc2Sc2ccc(Cl)cc21 [Chlorprothixene]
Percentage of cell with nuclear Arc immunostaining above 2σ threshold [3]: 1.0%

CN(C)CCCC1(c2ccc(F)cc2)OCc2cc(C#N)ccc21 (centres unmarked) [Citalopram]
Percentage of cell with nuclear Arc immunostaining above 2σ threshold [3]: 6.1%

COc1cc(N)c(Cl)cc1C(=O)NC1CCN(Cc2ccccc2)CC1 [Clebopride]
Percentage of cell with nuclear Arc immunostaining above 2σ threshold [1]: 25.8%
Fold-change — Normalized to DMSO control (BDNF) [2]: 1.3 fold

C[N+]12CCC(CC1)C(OC(=O)C(O)(c1ccccc1)c1ccccc1)C2 (centres unmarked) [Clidinium bromide]
Percentage of cell with nuclear Arc immunostaining above 2σ threshold [1]: 24.4%
Fold-change — Normalized to DMSO control (BDNF) [2]: 1.2 fold

Clc1cccc(Cl)c1N=C1NCCN1 [Clonidine]
Percentage of cell with nuclear Arc immunostaining above 2σ threshold [1]: 12.2%

C#CCN(C)CCCOc1ccc(Cl)cc1Cl [Clorgyline]
Percentage of cell with nuclear Arc immunostaining above 2σ threshold [3]: 7.4%
Fold-change — Normalized to DMSO control (BDNF) [4]: -2.6 fold
